Biological target: T1, SOS1 protein (Homo sapiens, UniProt Q07889)
T1 sequence (Q07889 1-1333): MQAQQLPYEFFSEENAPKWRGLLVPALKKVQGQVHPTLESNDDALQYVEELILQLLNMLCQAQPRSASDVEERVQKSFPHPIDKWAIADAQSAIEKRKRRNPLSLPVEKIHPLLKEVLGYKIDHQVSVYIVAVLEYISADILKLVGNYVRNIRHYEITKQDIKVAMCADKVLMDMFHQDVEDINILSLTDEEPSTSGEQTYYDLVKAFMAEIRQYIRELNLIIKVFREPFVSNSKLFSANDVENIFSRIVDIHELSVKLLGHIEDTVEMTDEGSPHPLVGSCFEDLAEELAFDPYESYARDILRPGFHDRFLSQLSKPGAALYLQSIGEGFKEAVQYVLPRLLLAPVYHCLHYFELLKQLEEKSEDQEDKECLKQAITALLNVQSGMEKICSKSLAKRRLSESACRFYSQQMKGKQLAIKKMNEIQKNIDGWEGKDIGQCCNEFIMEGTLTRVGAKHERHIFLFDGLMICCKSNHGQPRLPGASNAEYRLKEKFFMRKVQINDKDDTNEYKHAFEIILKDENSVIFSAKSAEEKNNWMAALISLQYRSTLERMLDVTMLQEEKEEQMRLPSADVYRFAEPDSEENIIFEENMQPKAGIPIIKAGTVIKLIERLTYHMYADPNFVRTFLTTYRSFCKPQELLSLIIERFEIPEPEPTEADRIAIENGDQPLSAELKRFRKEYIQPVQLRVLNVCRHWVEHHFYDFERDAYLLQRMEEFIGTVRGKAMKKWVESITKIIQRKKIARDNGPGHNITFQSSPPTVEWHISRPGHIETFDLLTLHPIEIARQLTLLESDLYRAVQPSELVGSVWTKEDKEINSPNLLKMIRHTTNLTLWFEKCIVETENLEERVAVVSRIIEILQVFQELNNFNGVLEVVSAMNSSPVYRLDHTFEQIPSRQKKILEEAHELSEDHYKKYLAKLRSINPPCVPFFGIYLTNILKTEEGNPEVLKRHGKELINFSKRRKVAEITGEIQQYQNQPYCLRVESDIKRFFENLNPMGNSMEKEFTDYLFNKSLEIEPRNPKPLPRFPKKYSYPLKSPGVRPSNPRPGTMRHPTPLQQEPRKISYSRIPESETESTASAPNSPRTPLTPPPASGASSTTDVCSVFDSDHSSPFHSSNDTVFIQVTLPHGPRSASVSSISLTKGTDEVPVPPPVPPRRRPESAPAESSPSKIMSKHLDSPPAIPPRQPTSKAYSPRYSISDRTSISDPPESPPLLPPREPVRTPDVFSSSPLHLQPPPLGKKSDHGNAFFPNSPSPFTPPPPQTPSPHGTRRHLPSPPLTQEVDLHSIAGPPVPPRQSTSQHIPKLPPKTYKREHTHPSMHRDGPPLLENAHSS
Test: SOS1 degradation assay (Western blot), SW-620 cells
Format: cell-based
Design: host or cells: SW-620 (human cancer cell lines)
Conditions: 24 h; for DC50: read-out: SW620 (G12V) DC50; for Dmax: read-out: SW620 (G12V) Dmax
Method: The specific procedures were as follows:
0.95 mL of cells were seeded into each well of a 24-well cell culture plate to achieve a cell density of 5×10^5 cells/well; the cell plate was incubated in an incubator at 37° C. with 5% CO2 overnight. Then 50 μL of the compound solution after dilution was added to each of the wells with the corresponding cells, so that the final concentration of the compound was in a range of 0.03-3000 nM. […] After dosing, the cell plate was incubated in an incubator at 37° C. with 5% CO2 for 24 h. […] After the plate was left to stand on ice for 30 min, the protein lysate in each well was transferred to a 1.5 mL centrifuge tube and centrifuged at 15000 g for 20 min at 4° C. The cell lysate supernatant after centrifugation was cryopreserved at −80° C. for testing and was used for determining the degradation level of the SOS1 protein by a WB method. The concentration of total protein in the cell lysate supernatant was determined using the BCA Protein Quantification Kit (Tiangen, PA115-02).
The concentration of total protein in the cell lysate was determined by BCA. The total protein was adjusted to 0.5 μg/μL with PBS and 5× SDS-PAGE protein loading buffer (Beyotime, P0015L), incubated in a water bath at 100° C. for 15 min, incubated in an ice bath on ice for 5 min, centrifuged at 14000 g for 1 min at 4° C., and mixed well as a loading sample for WB. Protein electrophoresis was performed on a precast gel (KeyGEN, KGMGO10W15) with a loading volume of 10 μL (total protein: 5 μg) using a Tris-MOPS-SDS running solution (Adamas, P1598253) at a constant voltage of 120 V for 55 min. After the electrophoresis, the protein on the gel strip was transferred to a PVDF membrane at a constant current of 250 mA for 65 min. After the membrane transfer, the membrane was incubated in 1× QuickBlock blocking buffer (Beyotime, P0235) for 30 min at room temperature. […] The protein map was subjected to gray value analysis by the chemiluminescence imaging system from Clinx. […] Then the degradation rate was calculated by comparing the gray correction value with the gray correction value of the control group. Then nonlinear curve fitting was performed by GraphPad Prism 8 in the logarithmic concentration-inhibition rate to obtain the DC50 and Dmax values of the compounds.

DC50 | Dmax | SMILES
< 50 nM | 80 to 100% | COc1cc2nc(C)nc(N[C@H](C)c3cc(N)cc(C(F)(F)F)c3)c2cc1[C@H]1CC[C@H](C(=O)N2CCN(CCC3CCC4(CC3)CCN(C(=O)c3ccc(Cl)c(N5CCC(=O)NC5=O)c3)CC4)CC2)CC1 [Example 1, 1-(5-(9-(2-(4-((1R,4R)-4-(4-(((R)-1-(3-amino-5-(trifluoromethyl)phenyl)ethyl)amino)-7-methoxy-2-methylquinazolin-6-yl)cyclohexane-1-carbonyl)piperazin-1-yl)ethyl)-3-azaspiro[5.5]undecane-3-carbonyl)-2-chlorophenyl)dihydropyrimidine-2,4(1H,3H)-dione]
< 50 nM | 80 to 100% | COc1cc2nc(C)nc(N[C@H](C)c3cccc4c3CCS4(=O)=O)c2cc1[C@H]1CC[C@H](C(=O)N2CCN(CC3CCC4(CC3)CCN(C(=O)c3ccc(Cl)c(N5CCC(=O)NC5=O)c3)CC4)CC2)CC1 [Example 10, 1-(2-chloro-5-(9-((4-((1R,4R)-4-(4-(((R)-1-(1,1-dioxo-2,3-dihydrobenzo[b]thiophen-4-yl)ethyl)amino)-7-methoxy-2-methylquinazolin-6-yl)cyclohexane-1-carbonyl)piperazin-1-yl)methyl)-3-azaspiro[5.5]undecane-3-carbonyl)phenyl)dihydropyrimidine-2,4(1H,3H)-dione]
< 50 nM | 80 to 100% | COc1cc2nc(C)nc(N[C@H](C)c3cc(N)cc(C(F)(F)F)c3)c2cc1[C@H]1CC[C@H](C(=O)N2CCN(CCOCC3CCN(C(=O)c4ccc(Cl)c(N5CCC(=O)NC5=O)c4)CC3)CC2)CC1 [Example 33, 1-(5-(4-((2-(4-((1R,4R)-4-(4-(((R)-1-(3-amino-5-(trifluoromethyl)phenyl)ethyl)amino)-7-methoxy-2-methylquinazolin-6-yl)cyclohexane-1-carbonyl)piperazin-1-yl)ethoxy)methyl)piperidine-1-carbonyl)-2-chlorophenyl)dihydropyrimidine-2,4(1H,3H)-dione]
< 50 nM | 80 to 100% | COc1cc2nc(C)nc(N[C@H](C)c3cc(N)cc(C(F)(F)F)c3)c2cc1[C@H]1CC[C@H](C(=O)N2CCN(CC3CCC4(CC3)CCN(C(=O)c3ccc(Cl)c(N5CCC(=O)NC5=O)c3)CC4)CC2)CC1 [Example 2, 1-(5-(9-((4-((1R,4R)-4-(4-(((R)-1-(3-amino-5-(trifluoromethyl)phenyl)ethyl)amino)-7-methoxy-2-methylquinazolin-6-yl)cyclohexane-1-carbonyl)piperazin-1-yl)methyl)-3-azaspiro[5.5]undecane-3-carbonyl)-2-chlorophenyl)dihydropyrimidine-2,4(1H,3H)-dione]
< 50 nM | 80 to 100% | CNCc1ccccc1-c1csc([C@@H](C)Nc2nc(C)nc3cc(OC)c([C@H]4CC[C@H](C(=O)N5CCN(CC6CCC7(CC6)CCN(C(=O)c6ccc(OC)c(N8CCC(=O)NC8=O)c6)CC7)CC5)CC4)cc23)c1 [Example 73, 1-(2-methoxy-5-(9-((4-((1R,4R)-4-(7-methoxy-2-methyl-4-(((R)-1-(4-(2-((methylamino)methyl)phenyl)thien-2-yl)ethyl)amino)quinazolin-6-yl)cyclohexane-1-carbonyl)piperazin-1-yl)methyl)-3-azaspiro[5.5]undecane-3-carbonyl)phenyl)dihydropyrimidine-2,4(1H,3H)-dione]
< 50 nM | 80 to 100% | COc1cc2nc(C)nc(N[C@H](C)c3cc(N)cc(C(F)(F)F)c3)c2cc1[C@H]1CC[C@H](C(=O)N2CCC(CCOCC3CCN(C(=O)c4ccc(Cl)c(N5CCC(=O)NC5=O)c4)CC3)CC2)CC1 [Example 19, 1-(5-(4-((2-(1-((1R,4R)-4-(4-(((R)-1-(3-amino-5-(trifluoromethyl)phenyl)ethyl)amino)-7-methoxy-2-methylquinazolin-6-yl)cyclohexane-1-carbonyl)piperidin-4-yl)ethoxy)methyl)piperidine-1-carbonyl)-2-chlorophenyl)dihydropyrimidine-2,4(1H,3H)-dione]

Reference: patent US20240261417A1, “SOS1 DEGRADING AGENT AND PREPARATION METHOD THEREFOR AND APPLICATION THEREOF” (SHANGHAI LEADINGTAC PHARMACEUTICAL CO. LTD., priority 2021, published 2024)
